Test results: patent US20210000911A1, “COMPOSITIONS AND METHODS FOR PROTECTING EPITHELIAL AND BARRIER INTEGRITY” (OCUNEXUS THERAPEUTICS, INC., priority 2019, published 2021)
“Also recorded” adds a separate entry of the source.

Tests used:
ARPE-19 cells [1] = experiment: Connexin43 immunohistochemistry (gap junction plaque localisation); assay type: cell-based, Human; settings: ARPE-19, HG + cytokines, 72 h
Method: (§1) Cell Culture—Human adult retinal pigment epithelial cells (ARPE-19; American Type Culture Collection, USA) were cultured in Dulbecco's Modified Eagle Medium Nutrient Mixture F-12 (DMEM-F12; Thermofisher Scientific Inc., USA) supplemented with 10% foetal bovine serum (FBS; Invitrogen, USA) and a 1× antibiotics and antimycotics mixture (AA, 100× stock) at 37° C. in a humidified 5% CO2 incubator. Cells were grown in T75 flasks and the medium was changed twice per week until confluent. […]
(§2) Image analysis and quantification of collagen IV immunolabelling—Images were taken on an Olympus FV1000 confocal laser scanning microscope (Olympus, Japan). […] Both ZO-1 and connexin43 expression were qualitatively assessed for changes in localisation. Collagen IV labelling was quantified from four images taken per well and the experiment was repeated three times. […] The total area covered by collagen IV was then quantified using the ‘measure’ feature in ImageJ. Collagen IV results were expressed as a percentage of untreated (basal) cells.

ARPE-19 cells [2] = experiment: Trans-epithelial electrical resistance (TEER) of ARPE-19 monolayer after HG and cytokine challenge; assay type: cell-based, Human; settings: ARPE-19, HG 32.5 mM + TNF-α and IL-1β 10 ng/mL, Peptide5 25 μM
Method: Cell Culture—Human adult retinal pigment epithelial cells (ARPE-19; American Type Culture Collection, USA) were cultured in Dulbecco's Modified Eagle Medium Nutrient Mixture F-12 (DMEM-F12; Thermofisher Scientific Inc., USA) supplemented with 10% foetal bovine serum (FBS; Invitrogen, USA) and a 1× antibiotics and antimycotics mixture (AA, 100× stock) at 37° C. in a humidified 5% CO2 incubator. Cells were grown in T75 flasks and the medium was changed twice per week until confluent.
HG and/or cytokine challenge—At passage 6-12, cells were plated at 2.5×10^5 cells/mL in 8-well chamber slides for immunohistochemical studies, 6-well plates for TEER and FITC-dextran studies or 96-well plates for the […] dehydrogenase (LDH) and ATP release assay until confluent after which the culture medium was changed to treatments in serum-free DMEM-F12 containing 1×AA for 24 h. […]
Measurement of Trans-Epithelial Electrical Resistance (TEER)—Cells were seeded at 2.5×10^5 cells/mL on polyester membranes in Transwell® 6-well plates (Corning Incorporated, USA) in growth medium and incubated for 72 h. […] Net TEER values were calculated by subtracting the resistance in Transwell inserts without cells from the experimental values obtained from chamber containing cells. […] The sample size was three readings per well, repeated three times in separate experiments.

ARPE-19 cells [3] = experiment: Lactate dehydrogenase (LDH) release assay; assay type: cell-based, Human; settings: ARPE-19, HG + cytokines, 72 h
Method: as §1
Lactate Dehydrogenase (LDH) assay—Cells were seeded at 2.5×10^5 cells/mL in 96-well plates until confluent after which the culture medium was changed to treatments in serum-free DMEM-F12 containing 1×AA for 72 h. […] The amount of LDH released was assessed using an LDH assay kit as per manufacturer instructions (Sigma-Aldrich, USA). […] A Synergy 2 multi-mode plate reader (BioTek Instruments Inc., USA) was used to measure the absorbance of the formazan dye in the medium at 490 nm (OD490). LDH release (%) was calculated relative to basal conditions.

ARPE-19 cells [4] = experiment: ZO-1 immunohistochemistry (localisation); assay type: cell-based, Human; settings: ARPE-19, HG + cytokines, Peptide5 25 μM, 72 h
Method: as §1, §2

connexin43 hemichannel = connexin43 hemichannel (human, UniProt P17302 2-382); experiment: cell-based or functional assay
[5] = Peptide5 25 μM plus exogenous ATP 100 nM

Sequence of connexin43 hemichannel (P17302 2-382): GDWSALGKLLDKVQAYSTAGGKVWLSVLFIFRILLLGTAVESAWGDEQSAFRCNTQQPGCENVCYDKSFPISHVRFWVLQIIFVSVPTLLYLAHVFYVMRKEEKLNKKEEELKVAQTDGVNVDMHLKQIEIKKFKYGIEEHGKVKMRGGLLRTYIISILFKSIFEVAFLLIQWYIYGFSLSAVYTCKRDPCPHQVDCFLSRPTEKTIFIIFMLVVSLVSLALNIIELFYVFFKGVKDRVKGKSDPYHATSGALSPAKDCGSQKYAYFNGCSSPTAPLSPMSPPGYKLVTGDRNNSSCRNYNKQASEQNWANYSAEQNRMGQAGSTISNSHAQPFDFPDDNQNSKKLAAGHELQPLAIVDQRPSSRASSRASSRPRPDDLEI

Molecule: H-Val-Asp-Cys-Phe-Leu-Ser-Arg-Pro-Thr-Glu-Lys-Thr-OH (H-VDCFLSRPTEKT-OH) [Peptide5]
- Connexin43 localisation with exogenously added ATP (qualitative) (ARPE-19 cells [1]; [5]): change in connexin43 gap junction localisation; also recorded: again a loss of connexin43 at cell membranes
- Connexin43 localisation at the cell membrane (qualitative) (ARPE-19 cells [1]; Peptide5 25 μM): protected against the redistribution of connexin43 localisation away from the cell membrane and into the cytoplasm; also recorded: connexin43 is kept in its normal pattern; also recorded: maintained connexin43 primarily in gap junction plaques, similar to basal conditions
- TEER relative to basal conditions (ARPE-19 cells [2]; 48 h): no statistically significant difference between Peptide5-treated and basal cells; also recorded: prevented a decrease in TEER at both time-points
- TEER relative to basal conditions (ARPE-19 cells [2]; 72 h): no statistically significant difference between Peptide5-treated and basal cells; also recorded: prevented a decrease in TEER at both time-points
- LDH release with exogenously added ATP (ARPE-19 cells [3]; [5]): once-again increased LDH release; also recorded: LDH levels were increased to injury levels
- LDH release relative to basal conditions (ARPE-19 cells [3]; Peptide5 25 μM): LDH release remains low; also recorded: prevented LDH release relative to basal conditions; also recorded: reduced by Peptide5 treatment
- ZO-1 localisation at the cell membrane (qualitative) (ARPE-19 cells [4]): maintained ZO-1 localisation to cell membranes similar to basal conditions

B1: Peptide5 (H-Val-Asp-Cys-Phe-Leu-Ser-Arg-Pro-Thr-Glu-Lys-Thr-OH) (peptide)
peptide: H-VDCFLSRPTEKT-OH
- FITC-dextran permeability at 72 h (% relative to blank wells), ARPE-19 monolayer with HG and cytokines, Peptide5 at 25 uM (connexin43 hemichannel): 33.2%
